Assay results published in PubChem BioAssay AID2060499 (Molecular Pharmacology Branch, DTP, NCI, 2025).

Tested on: 777334-354-R2-J4-PDC tumor spheroids with HUVEC/MSC, viability
Experiment: Anticancer human tumor 777334-354-R2-J4-PDC patient-derived pancreatic adenocarcinoma cell line growth inhibition [GQUAD]
Details: for IC50: curve of first compound; for viability, T/C: stronger effect = lower value; active means viability on the fitted dose curve at most 10% of control; inactive means the rest
In short: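 Viability of tumor cells grown as complex spheroids with endothelial and stromal cells, exposed to drug combinations. Top concentration at or near clinical Cmax (else 10 microM), diluted in half-log increments.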

[1] = second compound 0.0316 µM, first compound 0.0316 µM
[2] = second compound 0.0316 µM, first compound 0.316 µM
[3] = second compound 0.1 µM, first compound 0.0316 µM
[4] = second compound 0.1 µM, first compound 0.316 µM
[5] = second compound 0.316 µM, first compound 0.0316 µM
[6] = second compound 0.316 µM, first compound 0.316 µM
[7] = second compound 1 µM, first compound 0.0316 µM
[8] = second compound 1 µM, first compound 0.316 µM
[9] = second compound 3.16 µM, first compound 0.0316 µM
[10] = second compound 3.16 µM, first compound 0.316 µM
[11] = second compound 10 µM, first compound 0.0316 µM
[12] = second compound 10 µM, first compound 0.316 µM
[13] = second compound 0.0316 µM, first compound 0.000999 µM
[14] = second compound 0.0316 µM, first compound 0.00316 µM
[15] = second compound 0.0316 µM, first compound 0.00999 µM
[16] = second compound 0.0316 µM, first compound 0.0999 µM
[17] = second compound 0.1 µM, first compound 0.000999 µM
[18] = second compound 0.1 µM, first compound 0.00316 µM
[19] = second compound 0.1 µM, first compound 0.00999 µM
[20] = second compound 0.1 µM, first compound 0.0999 µM
[21] = second compound 0.316 µM, first compound 0.000999 µM
[22] = second compound 0.316 µM, first compound 0.00316 µM
[23] = second compound 0.316 µM, first compound 0.00999 µM
[24] = second compound 0.316 µM, first compound 0.0999 µM
[25] = second compound 1 µM, first compound 0.000999 µM
[26] = second compound 1 µM, first compound 0.00316 µM
[27] = second compound 1 µM, first compound 0.00999 µM
[28] = second compound 1 µM, first compound 0.0999 µM
[29] = second compound 3.16 µM, first compound 0.000999 µM
[30] = second compound 3.16 µM, first compound 0.00316 µM
[31] = second compound 3.16 µM, first compound 0.00999 µM
[32] = second compound 3.16 µM, first compound 0.0999 µM
[33] = second compound 10 µM, first compound 0.000999 µM
[34] = second compound 10 µM, first compound 0.00316 µM
[35] = second compound 10 µM, first compound 0.00999 µM
[36] = second compound 10 µM, first compound 0.0999 µM
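Further: spheroids exposed to compounds for 7 days before readout.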

CC(C)n1c(=O)n(C)c2cnc3cc(F)c(-c4ccc(OCCCN5CCCCC5)nc4)cc3c21 + CN(C)c1ccc(Nc2c3ccc(NC(=O)CCN4CCCC4)cc3nc3cc(NC(=O)CCN4CCCC4)ccc23)cc1
inactive: viability, T/C [1] 103% | viability, T/C (second compound 0.0316 µM, first compound 0.1 µM) 94.4% | viability, T/C [2] 99.3% | viability, T/C (second compound 0.0316 µM, first compound 1 µM) 107% | viability, T/C (second compound 0.0316 µM, first compound 3.16 µM) 115% | viability, T/C (second compound 0.0316 µM, first compound 10 µM) 92.3% | viability, T/C [3] 94% | viability, T/C (second compound 0.1 µM, first compound 0.1 µM) 93% | viability, T/C [4] 115% | viability, T/C (second compound 0.1 µM, first compound 1 µM) 104% | viability, T/C (second compound 0.1 µM, first compound 3.16 µM) 113% | viability, T/C (second compound 0.1 µM, first compound 10 µM) 93.4% | viability, T/C [5] 98.2% | viability, T/C (second compound 0.316 µM, first compound 0.1 µM) 111% | viability, T/C [6] 100% | viability, T/C (second compound 0.316 µM, first compound 1 µM) 107% | viability, T/C (second compound 0.316 µM, first compound 3.16 µM) 105% | viability, T/C (second compound 0.316 µM, first compound 10 µM) 77.5% | viability, T/C [7] 81.7% | viability, T/C (second compound 1 µM, first compound 0.1 µM) 85.6% | viability, T/C [8] 101% | viability, T/C (second compound 1 µM, first compound 1 µM) 90% | viability, T/C (second compound 1 µM, first compound 3.16 µM) 103% | viability, T/C (second compound 1 µM, first compound 10 µM) 75.2% | viability, T/C [9] 84.9% | viability, T/C (second compound 3.16 µM, first compound 0.1 µM) 75.3% | viability, T/C [10] 85.6% | viability, T/C (second compound 3.16 µM, first compound 1 µM) 83.2% | viability, T/C (second compound 3.16 µM, first compound 3.16 µM) 91.8% | viability, T/C (second compound 3.16 µM, first compound 10 µM) 62.1% | viability, T/C [11] 81.5% | viability, T/C (second compound 10 µM, first compound 0.1 µM) 75% | viability, T/C [12] 61.4% | viability, T/C (second compound 10 µM, first compound 1 µM) 58.6% | viability, T/C (second compound 10 µM, first compound 3.16 µM) 42.2% | viability, T/C (second compound 10 µM, first compound 10 µM) 31.7%
> 10000 nM: IC50 (second compound 0.0316 µM) | IC50 (second compound 0.1 µM) | IC50 (second compound 0.316 µM) | IC50 (second compound 1 µM) | IC50 (second compound 3.16 µM)
1650 nM: IC50 (second compound 10 µM)

CC[C@@]1(O)C(=O)OCc2c1cc1n(c2=O)Cc2cc3c(CN(C)C)c(O)ccc3nc2-1 + CN(C)c1ccc(Nc2c3ccc(NC(=O)CCN4CCCC4)cc3nc3cc(NC(=O)CCN4CCCC4)ccc23)cc1
inactive: viability, T/C [13] 105% | viability, T/C [14] 110% | viability, T/C [15] 109% | viability, T/C [1] 84.5% | viability, T/C [16] 56% | viability, T/C [2] 34.7% | viability, T/C [17] 106% | viability, T/C [18] 89.2% | viability, T/C [19] 103% | viability, T/C [3] 88.8% | viability, T/C [20] 57.7% | viability, T/C [4] 38.5% | viability, T/C [21] 77.1% | viability, T/C [22] 90.2% | viability, T/C [23] 95.1% | viability, T/C [5] 79.1% | viability, T/C [24] 60.4% | viability, T/C [6] 33.2% | viability, T/C [25] 98.8% | viability, T/C [26] 95.9% | viability, T/C [27] 100% | viability, T/C [7] 88.1% | viability, T/C [28] 57.8% | viability, T/C [8] 39.6% | viability, T/C [29] 83.7% | viability, T/C [30] 94.2% | viability, T/C [31] 98.8% | viability, T/C [9] 83.6% | viability, T/C [32] 51.4% | viability, T/C [10] 31.9% | viability, T/C [33] 79.3% | viability, T/C [34] 89.9% | viability, T/C [35] 67.4% | viability, T/C [11] 73.4% | viability, T/C [36] 55.3% | viability, T/C [12] 35.1%
163 nM: IC50 (second compound 1 µM)
130 nM: IC50 (second compound 0.0316 µM)
140 nM: IC50 (second compound 10 µM)
157 nM: IC50 (second compound 0.1 µM)
106 nM: IC50 (second compound 3.16 µM)
153 nM: IC50 (second compound 0.316 µM)

Cn1ncnc1[C@H]1c2n[nH]c(=O)c3cc(F)cc(c23)N[C@@H]1c1ccc(F)cc1 + Cc1[nH]c2ccc(F)cc2c1-c1nc2c3cccnc3c3ncccc3c2[nH]1
< 0.999 nM: IC50 (second compound 3.16 µM) | IC50 (second compound 10 µM)
> 316 nM: IC50 (second compound 0.0316 µM) | IC50 (second compound 0.1 µM) | IC50 (second compound 0.316 µM) | IC50 (second compound 1 µM)
inactive: viability, T/C [13] 105% | viability, T/C [14] 87.4% | viability, T/C [15] 92% | viability, T/C [1] 95.9% | viability, T/C [16] 81.6% | viability, T/C [2] 90.3% | viability, T/C [17] 110% | viability, T/C [18] 102% | viability, T/C [19] 99.4% | viability, T/C [3] 83.9% | viability, T/C [20] 94.5% | viability, T/C [4] 88.2% | viability, T/C [21] 94.7% | viability, T/C [22] 97.9% | viability, T/C [23] 95.1% | viability, T/C [5] 85.5% | viability, T/C [24] 84% | viability, T/C [6] 74.7% | viability, T/C [25] 75.4% | viability, T/C [26] 91.9% | viability, T/C [27] 91.2% | viability, T/C [7] 81.9% | viability, T/C [28] 82.1% | viability, T/C [8] 65.5% | viability, T/C [29] 33.3% | viability, T/C [30] 33.7% | viability, T/C [31] 44.6% | viability, T/C [9] 22.8% | viability, T/C [32] 28.6% | viability, T/C [10] 43.8% | viability, T/C [33] 35.3% | viability, T/C [34] 37.6% | viability, T/C [35] 41.8% | viability, T/C [11] 28.7% | viability, T/C [36] 37.1% | viability, T/C [12] 31.5%
